Experimental data published in ChEMBL document CHEMBL1201862, “PubChem BioAssay data set” (2004).
Active and inactive are the calls of the source.

How the values were obtained:
[1] = target: Heat shock protein HSP 90-alpha (Homo sapiens, UniProt P07900); assay: Luminescence-based dose response biochemical high throughput screening assay for inhibitors of the Heat Shock Protein 90 (HSP90). [Related pubchem assays: 1831 (Summary AID.), 1846 (Confirmation screen.), 1789 (Primary screen.)]
[2] = target: T1, Zinc finger protein mex-5 (Caenorhabditis elegans, UniProt Q9XUB2); assay: potency of MEX-5 RNA-binding blockers – biochemical, C. elegans, fluorescence polarization, dose response (AID 1960)
T1 sequence (Q9XUB2 whole entry): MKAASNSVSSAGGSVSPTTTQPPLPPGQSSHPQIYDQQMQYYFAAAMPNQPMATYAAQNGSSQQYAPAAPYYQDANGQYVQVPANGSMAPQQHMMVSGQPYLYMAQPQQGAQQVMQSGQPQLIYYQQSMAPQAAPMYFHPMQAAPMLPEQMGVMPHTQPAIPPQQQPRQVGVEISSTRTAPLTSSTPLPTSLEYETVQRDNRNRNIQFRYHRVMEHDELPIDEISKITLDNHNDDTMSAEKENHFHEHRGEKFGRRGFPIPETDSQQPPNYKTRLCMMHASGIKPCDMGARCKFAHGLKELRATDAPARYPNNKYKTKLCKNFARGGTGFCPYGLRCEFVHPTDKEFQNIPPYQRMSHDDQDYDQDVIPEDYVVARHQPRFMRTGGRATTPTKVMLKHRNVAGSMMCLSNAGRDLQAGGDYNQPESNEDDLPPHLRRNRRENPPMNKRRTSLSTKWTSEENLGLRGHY

[3] = target: T2, RNA-binding protein pos-1 (Caenorhabditis elegans, UniProt G5EF15); assay: disruptors of C. elegans POS-1 RNA interaction – biochemical, fluorescence polarization, dose response (AID 1964);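 further: purified POS-1 fused to maltose binding protein made in E. coli; potency of compounds blocking POS-1 binding to fluorescent RNA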
T2 sequence (G5EF15 whole entry): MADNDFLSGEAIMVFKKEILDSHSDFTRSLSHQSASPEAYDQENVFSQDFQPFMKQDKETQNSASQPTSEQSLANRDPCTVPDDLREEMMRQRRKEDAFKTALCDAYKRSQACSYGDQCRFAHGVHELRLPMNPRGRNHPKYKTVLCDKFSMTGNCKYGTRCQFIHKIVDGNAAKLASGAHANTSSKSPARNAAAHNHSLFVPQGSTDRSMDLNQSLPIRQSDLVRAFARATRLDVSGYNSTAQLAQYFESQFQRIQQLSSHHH

Estrogen receptor beta = Estrogen receptor beta (Homo sapiens, UniProt Q92731);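 further: recombinant ER-beta bound to coactivator SRC1 peptide in presence of estradiol agonist; inhibitors block coactivator peptide binding and lower the FRET signal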
[4] = target: Bifunctional protein GlmU (Mycobacterium tuberculosis, UniProt P9WMN3); assay: Inhibitors of Mycobacterial Glucosamine-1-phosphate acetyl transferase (GlmU). Secondary screen.; design: species or system Mycobacterium tuberculosis H37Rv
[5] = target: Mitogen-activated protein kinase 10 (Homo sapiens, UniProt P53779); assay: Dose response biochemical screening assay for inhibitors of c-Jun N-Terminal Kinase 3 (JNK3). [Related pubchem assays: 746 ]
Steroidogenic factor 1 = Steroidogenic factor 1 (Homo sapiens, UniProt Q13285); assay: Counterscreen for inverse agonists of the liver receptor homolog-1 (LRH-1; NR5A2): Luminescence-based cell-based high throughput dose response assay to identify inverse agonists of the Steroidogenic Factor 1 Nuclear Receptor (SF1; NR5A1).; format: functional
[6] = target: Nuclear receptor subfamily 5 group A member 2 (Homo sapiens, UniProt O00482); format: functional, cell-based;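 further: HEK293T cells transfected with LRH-1 and a StAR promoter luciferase reporter; potency for inhibitors that lower LRH-1 driven reporter light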
[7] = nonselective StAR promoter luciferase inhibitors – cell-based, luminescence, luciferase reporter, counter-screen for LRH-1 inverse agonist project, dose response (AID 651969); format: functional
[8] = target: Sphingosine 1-phosphate receptor 2 (Homo sapiens, UniProt O95136); assay: Dose Response Cell Based Assay for Agonists of the S1P2 Receptor. [Related pubchem assays: 729, 736, 843 ]; format: functional
[9] = target: T3, Calpain-2 catalytic subunit (Sus scrofa, UniProt P43367); assay: m-calpain protease blockers, concentration series – biochemical, fluorogenic peptide substrate, dose response (AID 1420); format: functional
T3 sequence (P43367 whole entry): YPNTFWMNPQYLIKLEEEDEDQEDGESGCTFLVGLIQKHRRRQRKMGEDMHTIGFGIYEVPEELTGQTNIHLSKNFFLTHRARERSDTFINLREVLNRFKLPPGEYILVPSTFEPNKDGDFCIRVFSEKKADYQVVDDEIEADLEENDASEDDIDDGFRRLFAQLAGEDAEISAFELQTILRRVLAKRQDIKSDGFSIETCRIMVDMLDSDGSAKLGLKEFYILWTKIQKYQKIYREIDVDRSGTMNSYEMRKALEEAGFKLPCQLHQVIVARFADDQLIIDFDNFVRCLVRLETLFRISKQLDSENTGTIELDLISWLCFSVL

[10] = target: T4, Sentrin-specific protease 7 (Homo sapiens, UniProt Q9BQF6); format: functional;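 further: Luminescence-based dose-response confirmation of ultra-high-throughput screening hits, measuring inhibition of SENP7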
T4 sequence (Q9BQF6 whole entry): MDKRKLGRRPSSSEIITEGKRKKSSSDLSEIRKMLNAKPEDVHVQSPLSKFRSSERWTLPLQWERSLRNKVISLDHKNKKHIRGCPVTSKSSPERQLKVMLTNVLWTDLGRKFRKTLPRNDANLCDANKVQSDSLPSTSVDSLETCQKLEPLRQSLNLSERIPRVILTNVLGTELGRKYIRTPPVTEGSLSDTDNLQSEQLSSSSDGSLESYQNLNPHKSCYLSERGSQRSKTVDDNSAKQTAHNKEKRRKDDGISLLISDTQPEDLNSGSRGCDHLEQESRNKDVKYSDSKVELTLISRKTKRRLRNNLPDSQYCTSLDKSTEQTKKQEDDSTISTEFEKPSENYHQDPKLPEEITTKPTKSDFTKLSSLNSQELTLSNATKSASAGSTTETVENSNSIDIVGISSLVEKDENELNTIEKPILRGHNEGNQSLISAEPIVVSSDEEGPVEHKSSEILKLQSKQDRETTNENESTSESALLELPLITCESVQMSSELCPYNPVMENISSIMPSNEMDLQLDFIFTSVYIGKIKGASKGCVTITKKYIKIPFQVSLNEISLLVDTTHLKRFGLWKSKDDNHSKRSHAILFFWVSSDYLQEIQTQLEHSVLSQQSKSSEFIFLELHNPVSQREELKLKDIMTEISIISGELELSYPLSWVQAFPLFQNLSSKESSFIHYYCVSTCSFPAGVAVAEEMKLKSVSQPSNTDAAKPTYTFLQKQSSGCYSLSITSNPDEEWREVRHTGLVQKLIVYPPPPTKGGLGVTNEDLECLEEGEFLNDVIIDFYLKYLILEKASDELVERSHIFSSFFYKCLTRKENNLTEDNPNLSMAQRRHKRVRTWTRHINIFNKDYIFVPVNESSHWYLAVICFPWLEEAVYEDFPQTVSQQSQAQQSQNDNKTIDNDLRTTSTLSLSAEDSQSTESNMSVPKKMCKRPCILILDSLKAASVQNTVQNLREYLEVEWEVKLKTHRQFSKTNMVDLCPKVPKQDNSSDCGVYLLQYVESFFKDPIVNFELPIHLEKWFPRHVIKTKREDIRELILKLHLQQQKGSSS

Caspase-3 = target: T5, Caspase-3 (Homo sapiens, UniProt P42574); format: functional;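 further: Dose-response selectivity test against caspase-3 for candidate inhibitors of sentrin-specific proteases (SENPs)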
T5 sequence (P42574 whole entry): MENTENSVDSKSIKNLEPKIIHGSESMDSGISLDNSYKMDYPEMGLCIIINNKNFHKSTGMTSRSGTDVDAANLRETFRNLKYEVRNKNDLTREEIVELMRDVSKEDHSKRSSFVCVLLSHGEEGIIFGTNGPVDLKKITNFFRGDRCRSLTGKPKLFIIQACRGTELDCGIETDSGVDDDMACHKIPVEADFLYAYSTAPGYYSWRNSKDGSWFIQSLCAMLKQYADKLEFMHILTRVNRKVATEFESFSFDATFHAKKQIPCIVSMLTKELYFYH

[11] = target: T6, Sentrin-specific protease 6 (Homo sapiens, UniProt Q9GZR1); format: functional;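 further: Luminescence-based dose-response confirmatory assay of SENP6 inhibition, following up an ultra-high-throughput screen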
T6 sequence (Q9GZR1 whole entry): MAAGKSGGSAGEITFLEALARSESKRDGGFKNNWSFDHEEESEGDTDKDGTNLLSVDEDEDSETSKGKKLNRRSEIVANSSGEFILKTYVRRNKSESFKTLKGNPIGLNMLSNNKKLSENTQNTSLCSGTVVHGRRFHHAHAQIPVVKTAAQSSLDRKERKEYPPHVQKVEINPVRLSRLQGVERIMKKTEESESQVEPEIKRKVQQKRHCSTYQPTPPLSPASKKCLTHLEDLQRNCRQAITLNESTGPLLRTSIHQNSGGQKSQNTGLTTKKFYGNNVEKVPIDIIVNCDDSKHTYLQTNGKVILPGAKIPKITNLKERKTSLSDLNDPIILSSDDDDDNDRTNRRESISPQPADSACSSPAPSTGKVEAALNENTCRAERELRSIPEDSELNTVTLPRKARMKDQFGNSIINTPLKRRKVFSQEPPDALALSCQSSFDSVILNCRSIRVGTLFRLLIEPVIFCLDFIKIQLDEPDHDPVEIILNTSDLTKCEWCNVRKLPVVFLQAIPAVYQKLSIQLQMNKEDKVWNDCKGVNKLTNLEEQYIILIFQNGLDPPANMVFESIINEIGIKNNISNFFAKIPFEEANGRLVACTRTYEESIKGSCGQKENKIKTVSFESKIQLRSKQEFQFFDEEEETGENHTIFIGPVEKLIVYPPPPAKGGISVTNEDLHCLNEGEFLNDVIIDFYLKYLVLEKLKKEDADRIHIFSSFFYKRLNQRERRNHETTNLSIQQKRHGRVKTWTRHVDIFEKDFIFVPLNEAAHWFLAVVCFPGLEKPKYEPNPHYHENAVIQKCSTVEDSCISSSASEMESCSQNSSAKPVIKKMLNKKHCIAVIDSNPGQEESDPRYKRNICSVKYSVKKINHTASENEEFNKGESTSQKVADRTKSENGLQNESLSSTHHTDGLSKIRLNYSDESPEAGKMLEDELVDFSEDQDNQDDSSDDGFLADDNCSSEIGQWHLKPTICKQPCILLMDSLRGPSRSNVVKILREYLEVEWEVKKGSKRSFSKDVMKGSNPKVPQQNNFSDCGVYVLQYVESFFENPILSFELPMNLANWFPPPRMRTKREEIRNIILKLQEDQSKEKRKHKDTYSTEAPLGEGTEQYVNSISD

[12] = target: T7, Sentrin-specific protease 8 (Homo sapiens, UniProt Q96LD8); format: functional;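 further: luminescence read-out of SENP8 inhibition, dose-response confirmation following an ultra-high-throughput screen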
T7 sequence (Q96LD8 whole entry): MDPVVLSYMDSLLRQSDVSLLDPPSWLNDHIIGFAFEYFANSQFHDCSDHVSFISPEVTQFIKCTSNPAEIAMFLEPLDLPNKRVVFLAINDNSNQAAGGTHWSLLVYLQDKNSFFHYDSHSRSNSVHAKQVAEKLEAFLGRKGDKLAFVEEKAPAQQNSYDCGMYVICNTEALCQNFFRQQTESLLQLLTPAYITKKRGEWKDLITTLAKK

[13] = Dd2 malaria parasite growth inhibition potency – SYBR Green, dry powder samples, dose response (AID 1159566); format: functional, cell-based;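 further: potency for growth inhibition with lower SYBR green DNA signal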
[14] = growth inhibition of PfATP4-mutant resistant parasites – NITD609-resistant line, SYBR Green, dry powder, dose response (AID 1159571); format: functional, cell-based;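 further: parasites synchronized at ring stage by sorbitol before testing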
[15] = toxicity to human HepG2 hepatoma cells – cell-based, plate reader, dry powder samples, cytotoxicity control, dose response (AID 1159569); format: functional;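 further: inhibitor potency with signal falling toward the positive control level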
[16] = P. falciparum Dd2 growth inhibitors, dose response, SYBR Green, cherry-picked samples (AID 1159567); format: functional, cell-based
[17] = growth inhibition of yeast DHODH-expressing 3D7 parasites – SYBR Green, dry powder samples, dose response (AID 1159570); format: functional, cell-based;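 further: parasite growth measured after 72 hours of compound exposure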
[18] = CellTiter-Glo luminescence survival assay, SW480 colon tumor line, concentration-response curve, half-maximal inhibitory concentration (AID 1117338); format: functional
[19] = cytotoxicity toward HCT116 cells – cell-based, CellTiter-Glo luminescence, IC50, dose response (AID 1117332); format: functional; details: HCT-116
[20] = cytotoxicity toward Colo320 cells – cell-based, CellTiter-Glo luminescence, IC50, dose response (AID 1117334); format: functional; details: COLO 320
[21] = cytotoxicity toward HT-29 cells – cell-based, CellTiter-Glo luminescence, IC50, dose response (AID 1117330); format: functional
[22] = HCT116 cell viability decrease, GSK3B pretreatment – CellTiter-Glo, IC50, dose response (AID 1117339); format: functional; details: HCT-116
[23] = RKO cell viability reduction, dose response, CellTiter-Glo luminescence (AID 1117322); format: functional
[24] = Reduced DLD-1 viability, concentration-response, CellTiter-Glo luminescence (AID 1117352); format: functional
[25] = SNU-C1 cell viability reduction, dose response, CellTiter-Glo luminescence (AID 1117323); format: functional, cell-based

Bifunctional protein GlmU, sequence (P9WMN3 whole entry): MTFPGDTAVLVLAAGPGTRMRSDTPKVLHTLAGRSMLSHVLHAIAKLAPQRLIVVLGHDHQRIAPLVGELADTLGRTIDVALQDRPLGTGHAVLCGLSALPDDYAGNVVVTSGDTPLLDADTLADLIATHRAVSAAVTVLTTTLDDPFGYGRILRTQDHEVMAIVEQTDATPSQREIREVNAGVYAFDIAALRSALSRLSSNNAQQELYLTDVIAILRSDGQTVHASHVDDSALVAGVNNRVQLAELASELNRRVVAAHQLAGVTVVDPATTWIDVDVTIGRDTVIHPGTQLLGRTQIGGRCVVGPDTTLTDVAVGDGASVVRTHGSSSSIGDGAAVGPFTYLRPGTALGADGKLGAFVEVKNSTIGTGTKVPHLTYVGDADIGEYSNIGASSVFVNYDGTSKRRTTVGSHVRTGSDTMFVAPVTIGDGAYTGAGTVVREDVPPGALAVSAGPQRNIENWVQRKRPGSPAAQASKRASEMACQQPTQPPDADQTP
Mitogen-activated protein kinase 10, sequence (P53779 whole entry): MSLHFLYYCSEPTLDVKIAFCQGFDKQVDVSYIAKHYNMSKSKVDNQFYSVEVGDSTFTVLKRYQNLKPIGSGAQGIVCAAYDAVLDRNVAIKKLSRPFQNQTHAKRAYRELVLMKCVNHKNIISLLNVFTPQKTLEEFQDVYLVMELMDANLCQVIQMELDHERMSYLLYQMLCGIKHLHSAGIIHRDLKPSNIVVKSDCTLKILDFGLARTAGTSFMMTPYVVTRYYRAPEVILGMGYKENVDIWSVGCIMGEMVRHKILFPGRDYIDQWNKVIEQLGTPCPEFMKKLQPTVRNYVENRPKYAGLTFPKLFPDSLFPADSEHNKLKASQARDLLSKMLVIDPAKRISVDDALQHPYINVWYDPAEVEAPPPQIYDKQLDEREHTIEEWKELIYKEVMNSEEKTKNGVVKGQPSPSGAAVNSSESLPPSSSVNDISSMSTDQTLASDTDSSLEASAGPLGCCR
Sphingosine 1-phosphate receptor 2, sequence (O95136 whole entry): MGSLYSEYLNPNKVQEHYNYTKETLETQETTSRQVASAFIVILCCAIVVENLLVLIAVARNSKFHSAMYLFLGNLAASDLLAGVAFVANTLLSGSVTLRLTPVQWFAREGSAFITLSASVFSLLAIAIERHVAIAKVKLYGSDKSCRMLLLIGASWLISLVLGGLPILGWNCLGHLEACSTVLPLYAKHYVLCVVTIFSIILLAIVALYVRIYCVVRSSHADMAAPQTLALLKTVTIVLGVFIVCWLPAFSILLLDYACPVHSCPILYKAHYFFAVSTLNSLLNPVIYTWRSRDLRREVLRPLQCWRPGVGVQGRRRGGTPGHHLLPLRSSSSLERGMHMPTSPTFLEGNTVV
Nuclear receptor subfamily 5 group A member 2, sequence (O00482 whole entry): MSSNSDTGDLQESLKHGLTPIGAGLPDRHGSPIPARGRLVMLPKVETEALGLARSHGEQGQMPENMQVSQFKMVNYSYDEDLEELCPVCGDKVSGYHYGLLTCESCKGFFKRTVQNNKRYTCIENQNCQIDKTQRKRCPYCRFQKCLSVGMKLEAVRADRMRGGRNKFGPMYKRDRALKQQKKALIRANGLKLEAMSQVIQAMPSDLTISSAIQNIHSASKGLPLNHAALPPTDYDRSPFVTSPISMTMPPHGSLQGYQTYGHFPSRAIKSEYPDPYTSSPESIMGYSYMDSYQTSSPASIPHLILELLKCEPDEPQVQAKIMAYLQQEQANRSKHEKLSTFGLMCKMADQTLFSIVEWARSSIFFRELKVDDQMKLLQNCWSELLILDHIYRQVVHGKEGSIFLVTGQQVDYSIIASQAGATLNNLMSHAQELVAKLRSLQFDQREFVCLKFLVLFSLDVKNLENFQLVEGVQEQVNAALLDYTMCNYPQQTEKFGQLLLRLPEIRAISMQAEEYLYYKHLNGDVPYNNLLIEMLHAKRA
Steroidogenic factor 1, sequence (Q13285 whole entry): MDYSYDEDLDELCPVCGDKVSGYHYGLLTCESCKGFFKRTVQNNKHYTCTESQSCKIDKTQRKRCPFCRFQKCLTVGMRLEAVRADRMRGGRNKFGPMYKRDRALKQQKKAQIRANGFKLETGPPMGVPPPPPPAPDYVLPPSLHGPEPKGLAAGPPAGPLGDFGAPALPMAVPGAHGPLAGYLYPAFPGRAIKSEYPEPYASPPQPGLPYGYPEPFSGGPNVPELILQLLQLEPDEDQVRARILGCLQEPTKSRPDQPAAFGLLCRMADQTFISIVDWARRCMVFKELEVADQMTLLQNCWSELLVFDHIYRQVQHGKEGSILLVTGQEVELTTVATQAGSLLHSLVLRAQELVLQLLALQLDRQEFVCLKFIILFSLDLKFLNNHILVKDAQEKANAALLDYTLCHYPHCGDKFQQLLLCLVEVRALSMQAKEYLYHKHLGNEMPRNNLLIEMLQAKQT
Estrogen receptor beta, sequence (Q92731 whole entry): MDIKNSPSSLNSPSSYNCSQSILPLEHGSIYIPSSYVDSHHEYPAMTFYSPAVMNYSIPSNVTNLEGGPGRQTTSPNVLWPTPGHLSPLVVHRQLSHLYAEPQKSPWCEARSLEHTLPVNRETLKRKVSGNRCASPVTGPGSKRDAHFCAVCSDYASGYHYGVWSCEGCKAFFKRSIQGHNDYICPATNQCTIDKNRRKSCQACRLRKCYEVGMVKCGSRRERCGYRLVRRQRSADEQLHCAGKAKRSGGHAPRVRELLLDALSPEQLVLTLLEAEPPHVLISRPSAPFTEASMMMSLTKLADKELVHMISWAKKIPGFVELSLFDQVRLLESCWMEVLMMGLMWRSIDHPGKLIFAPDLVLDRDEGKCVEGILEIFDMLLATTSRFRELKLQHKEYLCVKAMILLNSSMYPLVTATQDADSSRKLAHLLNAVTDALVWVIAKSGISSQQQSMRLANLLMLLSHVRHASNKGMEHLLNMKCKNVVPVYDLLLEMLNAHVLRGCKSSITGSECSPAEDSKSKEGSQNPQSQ

COCC(C)n1c(C)cc(C(=O)Cn2nc(C(=O)O)c3ccccc3c2=O)c1C (configuration not stated)
IC50 [1]: 11.4 µM (not active)

O=c1oc2ccc(Cl)cc2nc1/C=C(\O)c1cccs1
EC50 [2]: 153 µM (active) | IC50 [1]: 2.2 µM (active) | EC50 [3]: 230 µM (active)

Cc1c(Cl)cccc1NC(=O)CC1SCCNC1=O (configuration not stated)
IC50 (Estrogen receptor beta): > 50 µM (not active)

O=C(O)C1C2C=CC(CC2)C1C(=O)O (configuration not stated)
IC50 [4]: 114 µM (active)

CCn1c(SCC(=O)Nc2ccc(Cl)cc2)nnc1C1CC1
IC50 [5]: > 93.1 µM (not active) | IC50 (Steroidogenic factor 1): 6.13 µM (active) | IC50 [6]: 35.9 µM (inactive) | IC50 [7]: 35.9 µM (inactive)

C=CCn1c(N)cc(=O)nc1SCC(=O)Nc1ccccc1
EC50 [8]: > 50 µM (not active)

O=C(O)c1cc(C(=O)O)cc(-c2ccc(/C=c3/sc4nc5ccccc5n4c3=O)o2)c1
IC50 [4]: 34.1 µM (active) | IC50 [9]: 22 µM (not active)

C/C(=N\Cc1ccco1)c1c(C)nn(-c2nc3ccccc3s2)c1O
IC50 [10]: 3.48 µM (active) | IC50 (Caspase-3): 3.72 µM (active) | IC50 [5]: > 93.1 µM (not active) | IC50 [11]: 9.47 µM (active) | IC50 [12]: 11.5 µM (active)

COc1cc2c(cc1OC)C1=C(C#N)CC/C(=N\C(=O)c3ccc(Cl)cc3)N1CC2
EC50 [8]: 1.61 µM (active)

O=C(c1ccc(F)cc1)N1CC(=O)N2[C@H](CO)[C@H](c3ccc(-c4cccnc4)cc3)[C@H]2C1
AC50 [13]: 0.964 µM (active) | AC50 [14]: 1.27 µM (active) | AC50 [15]: > 100 µM (inactive) | AC50 [16]: 0.821 µM (active) | AC50 [17]: 1.2 µM (active)

O=C1NCCN1CCN1CCC(c2cn(-c3ccc(F)cc3)c3ccc(Cl)cc23)CC1 [SERTINDOLE]
IC50 [18]: 2.81 µM (active) | IC50 [19]: 2.16 µM (active) | IC50 [20]: 3.7 µM (active) | IC50 [21]: 2.86 µM (active) | IC50 [22]: 3.52 µM (active) | IC50 [23]: 2.6 µM (active) | IC50 [24]: 5.62 µM (inactive) | IC50 [25]: 1.43 µM (active)
